Assay results from patent publication US20230041996A1, “CALCIUM-SENSING RECEPTOR AGONIST COMPOUND AND APPLICATION THEREOF” (BEIJING TUO JIE BIOPHARMACEUTICAL CO. LTD., priority 2019, published 2023).
Square brackets hold non-standard residues; d marks the D form. Peptide text beside a SMILES is read from it. * marks the point of attachment. Cys(free,S-linked) = N[C@@H](CS*)C(=O)O; d(hPhe) = N[C@H](CCc1ccccc1)C(=O)O; dCha = N[C@H](CC1CCCCC1)C(=O)O; dChg = N[C@@H](C(=O)O)C1CCCCC1; dPhg = N[C@@H](C(=O)O)c1ccccc1; dTle = CC(C)(C)[C@@H](N)C(=O)O; dAbu = CC[C@@H](N)C(=O)O

Assays:
[1] = biological target: T1, human calcium-sensing receptor (CaSR) (Homo sapiens, UniProt P41180); test: Agonist activity on human calcium-sensing receptor (IP-One HTRF in stably transfected HEK293/CaSR cells); format: cell-based; details: HEK293/CaSR cells, IP-One production, 60 min at 37° C., CaCl2 1.2 mM; read-out: EC50 for calcium-sensing receptor
T1 construct: host or cells: HEK293
T1 sequence (P41180 20-1078): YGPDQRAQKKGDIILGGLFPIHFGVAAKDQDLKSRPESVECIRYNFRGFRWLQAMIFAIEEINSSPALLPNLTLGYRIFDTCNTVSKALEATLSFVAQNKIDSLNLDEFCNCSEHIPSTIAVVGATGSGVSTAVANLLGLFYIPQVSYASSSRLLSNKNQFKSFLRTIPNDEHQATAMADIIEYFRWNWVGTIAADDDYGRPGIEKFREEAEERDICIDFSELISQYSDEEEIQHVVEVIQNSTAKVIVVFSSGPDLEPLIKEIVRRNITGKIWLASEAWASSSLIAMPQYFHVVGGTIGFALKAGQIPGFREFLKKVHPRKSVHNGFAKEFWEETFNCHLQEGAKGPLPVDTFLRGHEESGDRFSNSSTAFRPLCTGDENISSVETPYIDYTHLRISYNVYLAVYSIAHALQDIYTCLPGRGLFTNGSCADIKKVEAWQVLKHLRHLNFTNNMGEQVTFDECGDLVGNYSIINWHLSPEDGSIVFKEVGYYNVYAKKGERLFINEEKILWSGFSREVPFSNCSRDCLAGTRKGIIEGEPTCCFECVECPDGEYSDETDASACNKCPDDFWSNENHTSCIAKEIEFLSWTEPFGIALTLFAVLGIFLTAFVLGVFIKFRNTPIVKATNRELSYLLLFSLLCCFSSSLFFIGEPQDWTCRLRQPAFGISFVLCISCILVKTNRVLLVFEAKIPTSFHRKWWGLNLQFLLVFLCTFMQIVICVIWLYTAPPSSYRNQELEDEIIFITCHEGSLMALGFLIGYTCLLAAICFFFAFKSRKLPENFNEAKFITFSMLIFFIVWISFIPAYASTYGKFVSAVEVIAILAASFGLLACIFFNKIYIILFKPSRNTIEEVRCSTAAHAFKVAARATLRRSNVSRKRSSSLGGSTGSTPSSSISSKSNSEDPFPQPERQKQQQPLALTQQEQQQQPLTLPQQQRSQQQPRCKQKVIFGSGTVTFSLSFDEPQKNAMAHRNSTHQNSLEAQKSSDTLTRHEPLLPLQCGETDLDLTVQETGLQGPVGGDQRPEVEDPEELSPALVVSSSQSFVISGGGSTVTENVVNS
Protocol: 3.1.1 Objective: The test example is intended to measure the agonist activity of compounds 1-38 on the human calcium-sensing receptor (CaSR).
Stably transfected HEK293/CaSR cells (source: Pharmaron) were cultured in a complete medium (composition: DMEM, high glucose+10% FBS+2 mM GlutaMAX+1× Penicillin-Streptomycin+200 μg/mL Hygromycin B) and incubated at 37° C./5% CO2 till 70%-90% cell confluence. The cells were digested with TrypLE, inoculated into 384-well cell culture plates, and cultured overnight at 37° C./5% CO2. After buffer exchange, stimulation buffer (HEPES 10 mM, MgCl2 0.5 mM, KCl 4.2 mM, NaCl 146 mM, glucose 5.5 mM, LiCl 50 mM, CaCl2 1.2 mM) and various concentrations of the test example compounds were added and incubated at 37° C. for 60 min. Production of IP-One in cells was detected according to the procedures in the Cisbio IP-One Tb kit instructions. The EC50 values of various test example compounds in influencing human calcium-sensing receptor was calculated by software after the raw data of the example compounds were collected, so as to evaluate the agonist activity of the example compounds on human calcium-sensing receptor.
HTRF signal was read by an EnVision detector with an excitation wavelength of 320 nm and emission wavelengths of 620 nm and 665 nm. The signal ratio (665 nm/620 nm×10,000) was calculated and fitted non-linearly to the sample concentration in GraphPad Prism 6 using a four-parameter equation to give EC50 values of the test example compounds 1-38.

[2] = tested on: rat peritoneal mast cells; test: In vitro histamine release in rat peritoneal mast cells (histamine ELISA); format: cell-based; details: for Relative fold of histamine release in vitro: test compound final concentration 10 μM, 15 min at 37° C., relative to PBS buffer (1.00)
Protocol: To evaluate the in vitro histamine release levels induced by some of the test example compounds, rat peritoneal mast cells were collected by lavaging rat peritoneum with a lavage buffer (cold HBSS+25 mM HEPES containing heparin 5 U/mL, pH 7.4). After collection, the cells were centrifuged, and the lavage buffer was discarded. The cells were resuspended and washed twice with a stimulation buffer (HBSS+25 mM HEPES+1 mM CaCl2), pH 7.4). The cells were plated at a density of 10^5 cell/well (200 μL/well) and incubated at 37° C. for 15 min with positive control compound 48/80 (final concentration: 4 μg/mL), test example compounds (final concentration: 10 μM) or vehicle control. The cells were centrifuged, and cell supernatant was collected and tested for histamine concentration according to LDN Histamine ELISA kit (BAE-1000) instructions.

| SMILES | EC50 [1] [µM] | Relative fold of histamine release in vitro [2] | histamine release levels in rat peritoneal mast cells in vitro relative to etelcalcetide ([2]; 10 μM, comparison with etelcalcetide) |
| --- | --- | --- | --- |
| CC(=O)N[C@H](CSSC[C@H](N)C(=O)O)C(=O)N[C@H](CO)C(=O)N[C@H](CCCNC(=N)N)C(=O)N[C@H](CCCNC(=N)N)C(=O)N[C@H](CCCNC(=N)N)C(=O)NCC(=O)N[C@H](CCCNC(=N)N)C(N)=O [Compound 8, Ac-c(C)-s-r-r-r-G-r-NH2] (Ac-[dC](Cys(free,S-linked))[dS][dR][dR][dR]G[dR]-NH2) | 14.3 | 1.50 |  |
| CC(=O)N[C@H](CSSC[C@H](N)C(=O)O)C(=O)N[C@H](Cc1c[nH]cn1)C(=O)N[C@H](CCCNC(=N)N)C(=O)N[C@H](CCCNC(=N)N)C(=O)N[C@H](CCCNC(=N)N)C(=O)N[C@H](CO)C(=O)N[C@H](CCCNC(=N)N)C(N)=O [Compound 10, Ac-c(C)-h-r-r-r-s-r-NH2] (Ac-[dC](Cys(free,S-linked))[dH][dR][dR][dR][dS][dR]-NH2) | 3.52 | 3.66 |  |
| CC(=O)N[C@H](CSSC[C@H](N)C(=O)O)C(=O)N[C@H](CCCNC(=N)N)C(=O)N[C@H](CCCNC(=N)N)C(=O)N[C@@H](C(=O)N[C@H](CCCNC(=N)N)C(=O)N[C@H](C)C(=O)N[C@H](CCCNC(=N)N)C(N)=O)c1ccccc1 [Compound 11, Ac-c(C)-r-r-(D-Phg)-r-a-r-NH2] (Ac-[dC](Cys(free,S-linked))[dR][dR][dPhg][dR][dA][dR]-NH2) | 15.7 | 1.11 |  |
| CC(=O)N[C@H](CSSC[C@H](N)C(=O)O)C(=O)N[C@H](CCCNC(=N)N)C(=O)N[C@H](CCCNC(=N)N)C(=O)N[C@H](CCc1ccccc1)C(=O)N[C@H](CCCNC(=N)N)C(=O)N[C@H](C)C(=O)N[C@H](CCCNC(=N)N)C(N)=O [Compound 16, Ac-c(C)-r-r-(D-hPhe)-r-a-r-NH2] (Ac-[dC](Cys(free,S-linked))[dR][dR][d(hPhe)][dR][dA][dR]-NH2) | 2.37 | 2.94 |  |
| CC(=O)N[C@H](CSSC[C@H](N)C(=O)O)C(=O)N[C@H](CCCNC(=N)N)C(=O)N[C@H](CCCNC(=N)N)C(=O)N[C@@H](C(=O)N[C@H](CCCNC(=N)N)C(=O)N[C@H](C)C(=O)N[C@H](CCCNC(=N)N)C(N)=O)C(C)(C)C [Compound 18, Ac-c(C)-r-r-(D-Tle)-r-a-r-NH2] (Ac-[dC](Cys(free,S-linked))[dR][dR][dTle][dR][dA][dR]-NH2) | 13.4 | 1.24 |  |
| CC(=O)N[C@H](CSSC[C@H](N)C(=O)O)C(=O)N[C@H](CCCNC(=N)N)C(=O)N[C@H](CCCNC(=N)N)C(=O)N[C@@H](C(=O)N[C@H](CCCNC(=N)N)C(=O)N[C@H](C)C(=O)N[C@H](CCCNC(=N)N)C(N)=O)C1CCCCC1 [Compound 20, Ac-c(C)-r-r-(D-Chg)-r-a-r-NH2] (Ac-[dC](Cys(free,S-linked))[dR][dR][dChg][dR][dA][dR]-NH2) | 7.53 | 2.33 |  |
| CC(=O)N[C@H](CSSC[C@H](N)C(=O)O)C(=O)N[C@H](CCCNC(=N)N)C(=O)N[C@H](CCCNC(=N)N)C(=O)N[C@H](CC1CCCCC1)C(=O)N[C@H](CCCNC(=N)N)C(=O)N[C@H](C)C(=O)N[C@H](CCCNC(=N)N)C(N)=O [Compound 21, Ac-c(C)-r-r-(D-Cha)-r-a-r-NH2] (Ac-[dC](Cys(free,S-linked))[dR][dR][dCha][dR][dA][dR]-NH2) | 5.59 | 3.42 |  |
| CC(=O)N[C@H](CSSC[C@H](N)C(=O)O)C(=O)N[C@H](CCCNC(=N)N)C(=O)N[C@H](CCCNC(=N)N)C(=O)N[C@H](CO)C(=O)N[C@H](CCCNC(=N)N)C(=O)NCC(=O)N[C@H](CCCNC(=N)N)C(N)=O [Compound 22, Ac-c(C)-r-r-s-r-G-r-NH2] (Ac-[dC](Cys(free,S-linked))[dR][dR][dS][dR]G[dR]-NH2) | 15.4 | 1.63 |  |
| CC(=O)N[C@H](CSSC[C@H](N)C(=O)O)C(=O)N[C@H](CCCNC(=N)N)C(=O)N[C@H](CCCNC(=N)N)C(=O)N[C@H](Cc1ccc(O)cc1)C(=O)N[C@H](CCCNC(=N)N)C(=O)N[C@H](C)C(=O)N[C@H](CCCNC(=N)N)C(N)=O [Compound 24, Ac-c(C)-r-r-y-r-a-r-NH2] (Ac-[dC](Cys(free,S-linked))[dR][dR][dY][dR][dA][dR]-NH2) | 2.03 | 3.18 |  |
| CC(=O)N[C@H](CSSC[C@H](N)C(=O)O)C(=O)N[C@H](CCCNC(=N)N)C(=O)N[C@H](CCCNC(=N)N)C(=O)N[C@H](CO)C(=O)N[C@H](CCCNC(=N)N)C(=O)N[C@H](CO)C(=O)N[C@H](CCCNC(=N)N)C(N)=O [Compound 25, Ac-c(C)-r-r-s-r-s-r-NH2] (Ac-[dC](Cys(free,S-linked))[dR][dR][dS][dR][dS][dR]-NH2) | 10.1 | 1.65 |  |
| CC(=O)N[C@H](CSSC[C@H](N)C(=O)O)C(=O)N[C@H](CCCNC(=N)N)C(=O)N[C@H](CCCNC(=N)N)C(=O)N[C@H](CCC(N)=O)C(=O)N[C@H](CCCNC(=N)N)C(=O)N[C@H](CO)C(=O)N[C@H](CCCNC(=N)N)C(N)=O [Compound 26, Ac-c(C)-r-r-q-r-s-r-NH2] (Ac-[dC](Cys(free,S-linked))[dR][dR][dQ][dR][dS][dR]-NH2) | 9.24 | 1.73 |  |
| CC(=O)N[C@H](CSSC[C@H](N)C(=O)O)C(=O)N[C@H](CCCNC(=N)N)C(=O)N[C@H](CCCNC(=N)N)C(=O)N[C@H](Cc1c[nH]cn1)C(=O)N[C@H](CCCNC(=N)N)C(=O)N[C@H](CO)C(=O)N[C@H](CCCNC(=N)N)C(N)=O [Compound 27, Ac-c(C)-r-r-h-r-s-r-NH2] (Ac-[dC](Cys(free,S-linked))[dR][dR][dH][dR][dS][dR]-NH2) | 10.8 | 2.23 |  |
| CC(=O)N[C@H](CSSC[C@H](N)C(=O)O)C(=O)N[C@H](CCCNC(=N)N)C(=O)N[C@H](CCCNC(=N)N)C(=O)N[C@@H](C(=O)N[C@H](CCCNC(=N)N)C(=O)NCC(=O)N[C@H](CCCNC(=N)N)C(N)=O)C(C)C [Compound 30, Ac-c(C)-r-r-v-r-G-r-NH2] (Ac-[dC](Cys(free,S-linked))[dR][dR][dV][dR]G[dR]-NH2) | 19.6 | 1.51 |  |
| CC[C@@H](NC(=O)[C@@H](CCCNC(=N)N)NC(=O)[C@@H](CCCNC(=N)N)NC(=O)[C@@H](CSSC[C@H](N)C(=O)O)NC(C)=O)C(=O)N[C@H](CCCNC(=N)N)C(=O)NCC(=O)N[C@H](CCCNC(=N)N)C(N)=O [Compound 32, Ac-c(C)-r-r-(D-Abu)-r-G-r-NH2] (Ac-[dC](Cys(free,S-linked))[dR][dR][dAbu][dR]G[dR]-NH2) | 13.1 | 1.41 | reduction in histamine release levels |
